This test concerns BDF1 mice, P388 leukemia ip, median survival T/C. In words: NCI In Vivo Anticancer Drug Screen. Data for tumor model P388 Leukemia (intraperitoneal) in B6D2F1 (BDF1) mice. The note with it: endpoint: median survival time, higher = longer survival. An outline of the steps: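 Steps: implant the tumour, treat one group with compound and another with vehicle, record survival, then divide treated by control.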

The mark [1] stands for this setting: dose: 50.0 mg/kg/injection, schedule: Q01DX009 (ip), vehicle: saline with Tween-80.
Where [2] appears, read: dose: 100.0 mg/kg/injection, schedule: Q01DX009 (ip), vehicle: saline with Tween-80.
Where [3] appears, read: dose: 200.0 mg/kg/injection, schedule: Q01DX009 (ip), vehicle: saline with Tween-80.
Setting [4] is: dose: 50.0 mg/kg/injection, schedule: Q01DX009 (ip), vehicle: saline.
[5] abbreviates: dose: 100.0 mg/kg/injection, schedule: Q01DX009 (ip), vehicle: saline.
[6] abbreviates: dose: 200.0 mg/kg/injection, schedule: Q01DX009 (ip), vehicle: saline.
The mark [7] stands for this setting: dose: 100.0 mg/kg/injection, schedule: Q04DX003 (ip), vehicle: saline with Tween-80.
[8] abbreviates: dose: 200.0 mg/kg/injection, schedule: Q04DX003 (ip), vehicle: saline with Tween-80.
[9] abbreviates: dose: 400.0 mg/kg/injection, schedule: Q04DX003 (ip), vehicle: saline with Tween-80.
The mark [10] stands for this setting: dose: 12.5 mg/kg/injection, schedule: Q01DX009 (ip), vehicle: Klucel (hydroxypropylcellulose) (HPC).
Where [11] appears, read: dose: 50.0 mg/kg/injection, schedule: Q01DX009 (ip), vehicle: Klucel (hydroxypropylcellulose) (HPC).
Where [12] appears, read: dose: 100.0 mg/kg/injection, schedule: Q04DX003 (ip), vehicle: saline.
Setting [13] is: dose: 200.0 mg/kg/injection, schedule: Q04DX003 (ip), vehicle: saline.
The mark [14] stands for this setting: dose: 400.0 mg/kg/injection, schedule: Q04DX003 (ip), vehicle: saline.
Setting [15] is: dose: 25.0 mg/kg/injection, schedule: Q01DX009 (ip), vehicle: saline with Tween-80.

The record followed here is PubChem BioAssay AID328 (DTP/NCI, 2004).

Each structure is given as a SMILES string. “And” between values parts separate entries of the source, which are not always exact repeats. Equal entries are not always repeated. Toxic doses and inconclusive results are not listed.

As for `CC1(C)CCC(C)(C)c2c1ccc(O)c2Sc1c(O)ccc2c1C(C)(C)CCC2(C)C`, the T/C reads like this: under setting [1], 97 % of control; under setting [2], 97 % of control and 119 % of control; under setting [3], 102 % of control and 104 % of control; (dose: 400.0 mg/kg/injection, schedule: Q01DX009 (ip), vehicle: saline with Tween-80) 93 % of control.
In the case of `CC(C)(C)C1=CC(C(C)(C)C)CCC1=O` (stereo not given), the T/C runs as follows: under setting [4], 86 % of control; (dose: 75.0 mg/kg/injection, schedule: Q04DX003 (ip), vehicle: saline) 110 % of control; under setting [5], 109 % of control; (dose: 150.0 mg/kg/injection, schedule: Q04DX003 (ip), vehicle: saline) 110 % of control; under setting [6], 118 % of control; (dose: 300.0 mg/kg/injection, schedule: Q04DX003 (ip), vehicle: saline) 120 % of control.
Turning to `CS(=O)(=O)OCCF`, the T/C (dose: 1.5 mg/kg/injection, schedule: Q01DX009 (ip), vehicle: saline with Tween-80) is 100 % of control; the T/C (dose: 1.5 mg/kg/injection, schedule: Q04DX003 (ip), vehicle: saline) was 104 % of control; the T/C (dose: 3.0 mg/kg/injection, schedule: Q01DX009 (ip), vehicle: saline with Tween-80) was 100 % of control; the T/C (dose: 3.0 mg/kg/injection, schedule: Q04DX003 (ip), vehicle: saline) is 109 % of control.
Take `CCCC(Cc1ccccc1)(C(=O)OCC)C(=O)OCC`: the T/C runs as follows: under setting [7], 99 % of control; under setting [8], 99 % of control; under setting [9], 91 % of control.
Regarding `C1CSCSC1`, the T/C is 100 % of control (dose: 6.25 mg/kg/injection, schedule: Q04DX003 (ip), vehicle: Klucel (hydroxypropylcellulose) (HPC)); 95 % of control (dose: 12.5 mg/kg/injection, schedule: Q04DX003 (ip), vehicle: Klucel (hydroxypropylcellulose) (HPC)); 87 % of control (dose: 25.0 mg/kg/injection, schedule: Q04DX003 (ip), vehicle: Klucel (hydroxypropylcellulose) (HPC)).
Regarding `[O-][n+]1onc2ccc(Cl)cc21`, the T/C is, setting by setting: under setting [10], 100 % of control; (dose: 25.0 mg/kg/injection, schedule: Q01DX009 (ip), vehicle: Klucel (hydroxypropylcellulose) (HPC)) 100 % of control; (dose: 37.5 mg/kg/injection, schedule: Q04DX003 (ip), vehicle: Klucel (hydroxypropylcellulose) (HPC)) 95 % of control; under setting [11], 95 % of control; (dose: 75.0 mg/kg/injection, schedule: Q04DX003 (ip), vehicle: Klucel (hydroxypropylcellulose) (HPC)) 117 % of control; (dose: 150.0 mg/kg/injection, schedule: Q04DX003 (ip), vehicle: Klucel (hydroxypropylcellulose) (HPC)) 86 % of control.
`CN(C)c1ccc(/C=C\c2ccnc3ccccc23)cc1`: the T/C was 100 % of control (dose: 1.5 mg/kg/injection, schedule: Q01DX010 (ip), vehicle: saline); 95 % of control (dose: 3.0 mg/kg/injection, schedule: Q01DX010 (ip), vehicle: saline); 100 % of control (dose: 6.0 mg/kg/injection, schedule: Q01DX010 (ip), vehicle: saline); 109 % of control (dose: 12.0 mg/kg/injection, schedule: Q01DX010 (ip), vehicle: saline).
Consider `CS(=O)(=O)c1ncc(Br)cn1`, for which the T/C is 103 % of control (dose: 50.0 mg/kg/injection, schedule: Q01DX005 (ip), vehicle: saline with Tween-80); 111 % of control under setting [4]; 109 % of control (dose: 100.0 mg/kg/injection, schedule: Q01DX005 (ip), vehicle: saline with Tween-80); 124 % of control under setting [5]; 117 % of control (dose: 200.0 mg/kg/injection, schedule: Q01DX005 (ip), vehicle: saline with Tween-80); 120 % of control under setting [6]. The T/C (dose: 400.0 mg/kg/injection, schedule: Q01DX005 (ip), vehicle: saline with Tween-80) is 120 % of control.
In the case of `NC(=O)c1ccc(C(F)(F)F)cc1O`, the T/C is 90 % of control (dose: 100.0 mg/kg/injection, schedule: Q04DX003 (ip), vehicle: Klucel (hydroxypropylcellulose) (HPC)) and 90 % of control (dose: 200.0 mg/kg/injection, schedule: Q04DX003 (ip), vehicle: Klucel (hydroxypropylcellulose) (HPC)).
For `CC(=O)c1nc2c(N)nc(N)nc2nc1C`, the T/C runs as follows: under setting [7], 92 % of control; under setting [8], 111 % of control; under setting [9], 106 % of control.
In the same order, the values of `Cc1cccnc1NS(=O)(=O)c1ccccc1` are 100 % of control, 104 % of control and 108 % of control.
With `Nc1cccc2c1C(=O)C=CC2=O`, the T/C by setting is: (dose: 1.15 mg/kg/injection, schedule: Q01DX009 (ip), vehicle: saline) 112 % of control; (dose: 2.3 mg/kg/injection, schedule: Q01DX009 (ip), vehicle: saline) 108 % of control; (dose: 3.25 mg/kg/injection, schedule: Q04DX003 (ip), vehicle: saline) 121 % of control; (dose: 4.6 mg/kg/injection, schedule: Q01DX009 (ip), vehicle: saline) 108 % of control.
For the molecule `C1CCNCC1.COc1ccccc1C(=O)[CH-]C(=O)C(F)(F)F.COc1ccccc1C(=O)[CH-]C(=O)C(F)(F)F.COc1ccccc1C(=O)[CH-]C(=O)C(F)(F)F.COc1ccccc1C(=O)[CH-]C(=O)C(F)(F)F.[Eu+3]`, the T/C under setting [4] was 88 % of control and the T/C under setting [5] is 119 % of control.
With `CCCCCCCCCCCCCCCOc1ccc(C)cc1`, the T/C runs as follows: (dose: 50.0 mg/kg/injection, schedule: Q04DX003 (ip), vehicle: saline sonified) 90 % of control; (dose: 100.0 mg/kg/injection, schedule: Q04DX003 (ip), vehicle: saline sonified) 100 % of control; (dose: 200.0 mg/kg/injection, schedule: Q04DX003 (ip), vehicle: saline sonified) 90 % of control.
Consider `C=C1C(=O)OC2CC(C)C3(O)CCC(C)(CC(OC(=O)C(C)C)C12)O3` (stereo not given), for which the T/C was 100 % of control (dose: 40.0 mg/kg/injection, schedule: Q01DX009 (ip), vehicle: saline); 117 % of control under setting [11]; 117 % of control and 118 % of control (dose: 100.0 mg/kg/injection, schedule: Q01DX009 (ip), vehicle: Klucel (hydroxypropylcellulose) (HPC)).
As to `CC1OCC2OC(C)OC(C(COC(c3ccccc3)(c3ccccc3)c3ccccc3)OS(C)(=O)=O)C2O1` (stereo not given), the T/C under setting [12] was 100 % of control, the T/C under setting [13] is 104 % of control and the T/C under setting [14] was 108 % of control.
As to `O=C1NC(O)CCN1C1OC(CO)C(O)C1O` (stereo not given), the T/C under setting [4] is 89 % of control; the T/C under setting [5] is 100 % of control and 113 % of control; the T/C under setting [12] was 116 % of control; the T/C under setting [6] was 101 % of control and 104 % of control; the T/C under setting [13] is 108 % of control; the T/C (dose: 400.0 mg/kg/injection, schedule: Q01DX009 (ip), vehicle: saline) was 100 % of control and 117 % of control. Besides, the T/C under setting [14] was 95 % of control.
On to `COc1cc2c(cc1OC)-c1cc3cc(OC)c(OC)cc3c(C)[n+]1CC2` (tested in a mixture with another compound), for which the T/C is, setting by setting: under setting [10], 103 % of control; under setting [15], 104 % of control; under setting [11], 123 % of control; under setting [1], 113 % of control; under setting [2], 154 % of control.
Consider `Cc1ccc(Nc2c([N+](=O)[O-])c(=O)n(C)c(=O)n2C)cc1C`, for which the T/C runs as follows: under setting [1], 103 % of control; under setting [2], 96 % of control; under setting [3], 96 % of control.
`COc1c(C)c2c3c4c1C(=O)C(=CC4=O)NC(=O)/C(C)=C\C=C\C(C)C1OC(C)(C)OC(C1C)C(C)C(OC(C)=O)C(C)C(OC)/C=C/OC(C)(O2)C3=O` (stereo not given): the T/C runs as follows: (dose: 12.5 mg/kg/injection, schedule: Q01DX009 (ip), vehicle: saline with Tween-80) 109 % of control; under setting [15], 113 % of control; under setting [1], 105 % of control and 117 % of control.
In the case of `O=c1cc[nH]c(=O)o1`, the T/C is, setting by setting: (dose: 19.0 mg/kg/injection, schedule: Q01DX009 (ip), vehicle: water) 157 % of control; (dose: 28.0 mg/kg/injection, schedule: Q01DX009 (ip), vehicle: water) 169 % of control; (dose: 42.0 mg/kg/injection, schedule: Q01DX009 (ip), vehicle: water) 168 % of control; (dose: 63.0 mg/kg/injection, schedule: Q01DX009 (ip), vehicle: water) 94 % of control.
Consider `Cc1cc(O)n(Cc2ccccc2)c(=O)c1`, for which the T/C under setting [7] was 102 % of control, the T/C under setting [8] is 87 % of control and the T/C under setting [9] was 107 % of control.
